In BindingDB's records for doi:10.1016/j.ejmech.2020.112602 (Utah State University, 2020):

Experiments:
[1] = Inhibition of human Cx43 expressed in Escherichia coli LB2003 cells in medium containing 8 mM K+ and 10 uM IPTG by measuring cell growth after 18 hrs by plate reader
[2] = Inhibition of human Cx26 expressed in Escherichia coli LB2003 cells in medium containing 4 mM K+ and 500 uM IPTG by measuring cell growth after 18 hrs by plate reader

SMILES	IC50 [1] [µM]	IC50 [2] [µM]
N[C@@H]1[C@@H](O)[C@@H](O[C@@H]2[C@@H](O)[C@H](O[C@H]3O[C@H](CNC(=O)CCCc4cc5ccc6cccc7ccc(c4)c5c67)[C@@H](O)[C@H](O)[C@H]3O)[C@@H](N)C[C@H]2N)O[C@H](CO)[C@H]1O	8.6	18.6
N[C@@H]1[C@@H](O)[C@@H](O[C@@H]2[C@@H](O)[C@H](O[C@H]3O[C@H](CNC(=O)c4ccccc4-c4c5ccc(=O)cc-5oc5cc(O)ccc45)[C@@H](O)[C@H](O)[C@H]3O)[C@@H](N)C[C@H]2N)O[C@H](CO)[C@H]1O	8.9	12.7
NC[C@H]1O[C@H](O[C@H]2[C@H](O)[C@@H](O[C@H]3O[C@H](COCc4cccc(-c5ccccc5)c4)[C@@H](OCc4cccc(-c5ccccc5)c4)[C@H](N)[C@H]3O)[C@H](N)C[C@@H]2N)[C@H](O)[C@@H](O)[C@@H]1O	5.5	
CCCCCCCCCCCC(=O)NC[C@H]1O[C@H](O[C@H]2[C@H](O)[C@@H](O[C@H]3O[C@H](CO)[C@@H](O)[C@H](N)[C@H]3O)[C@H](N)C[C@@H]2N)[C@H](O)[C@@H](O)[C@@H]1O		66.7
NC[C@H]1O[C@H](O[C@H]2[C@H](O)[C@@H](O[C@H]3O[C@H](COCc4ccc5ccccc5c4)[C@@H](OCc4ccc5ccccc5c4)[C@H](N)[C@H]3O)[C@H](N)C[C@@H]2N)[C@H](O)[C@@H](O)[C@@H]1O	6.2	

Results, then the compound that gave them:

IC50 [1] [µM]	IC50 [2] [µM]	SMILES
17.7	6	NC[C@H]1O[C@H](O[C@H]2[C@H](O)[C@@H](O[C@H]3O[C@H](COc4ccc(-c5nc6ccccc6[nH]5)cc4)[C@@H](O)[C@H](N)[C@H]3O)[C@H](N)C[C@@H]2N)[C@H](O)[C@@H](O)[C@@H]1O
8.9	17.2	NC[C@H]1O[C@H](O[C@H]2[C@H](O)[C@@H](O[C@H]3O[C@H](COc4ccc(Cl)cc4)[C@@H](O)[C@H](N)[C@H]3O)[C@H](N)C[C@@H]2N)[C@H](O)[C@@H](O)[C@@H]1O
26.6		NC[C@H]1O[C@H](O[C@H]2[C@H](O)[C@@H](O[C@H]3O[C@H](COCc4ccc(F)cc4)[C@@H](OCc4ccc(F)cc4)[C@H](N)[C@H]3O)[C@H](N)C[C@@H]2N)[C@H](O)[C@@H](O)[C@@H]1O
17.1		NC[C@H]1O[C@H](O[C@H]2[C@H](O)[C@@H](O[C@H]3O[C@H](COCc4ccc(Cl)cc4)[C@@H](OCc4ccc(Cl)cc4)[C@H](N)[C@H]3O)[C@H](N)C[C@@H]2N)[C@H](O)[C@@H](O)[C@@H]1O
3.1		Cc1ccc(COC[C@H]2O[C@H](O[C@@H]3[C@@H](O)[C@H](O[C@H]4O[C@H](CN)[C@@H](O)[C@H](O)[C@H]4O)[C@@H](N)C[C@H]3N)[C@H](O)[C@@H](N)[C@@H]2OCc2ccc(C)cc2)cc1
6.2	49.4	Cc1ccc(OC[C@H]2O[C@H](O[C@@H]3[C@@H](O)[C@H](O[C@H]4O[C@H](CN)[C@@H](O)[C@H](O)[C@H]4O)[C@@H](N)C[C@H]3N)[C@H](O)[C@@H](N)[C@@H]2O)cc1
4.1		COc1ccc(COC[C@H]2O[C@H](O[C@@H]3[C@@H](O)[C@H](O[C@H]4O[C@H](CN)[C@@H](O)[C@H](O)[C@H]4O)[C@@H](N)C[C@H]3N)[C@H](O)[C@@H](N)[C@@H]2OCc2ccc(OC)cc2)cc1
